Experiments:
Assay in all cases: Protection of tissue from cytopathic effects (plaque inhibition, filter paper disc or agar overlay)
Conditions in all cases: 33°, 3 to 5 days
[1] = tested on: Rhinovirus strain 2
[2] = tested on: Rhinovirus strain 14
[3] = tested on: Rhinovirus strain 1B
[4] = tested on: Rhinovirus strain 23; further: test concentration or dose not given here
[5] = tested on: Rhinovirus strain 5; further: test concentration or dose not given here

Measured: Protection of tissue from destruction by virus

N=C(Nc1cccc(Cl)c1)Nc1nc(-c2ccccc2)cs1 [1-(4-phenyl-2-thiazolyl)-3-(3-chlorophenyl) guanidine]
+: [1]

N=C(Nc1ccc(C(=O)O)cc1)Nc1nc(-c2ccccc2)cs1 [1-(4-phenyl-2-thiazolyl)-3-(4-carboxyphenyl) guanidine]
+: all assays above

N=C(Nc1ccc(F)cc1)Nc1nc(-c2ccccc2)cs1 [1-(4-phenyl-2-thiazolyl)-3-(4-fluorophenyl) guanidine]
+: [3] | [1] | [5]

Cc1ccc(NC(=N)Nc2nc(-c3ccccc3)cs2)cc1 [1-(4-phenyl-2-thiazolyl)-3-(p-tolyl)guanidine]
+: all assays above

COC(=O)c1ccc(NC(=N)Nc2nc(-c3ccccc3)cs2)cc1 [1-(4-phenyl-thiazolyl)-3-(4-carbomethoxyphenyl)-guanidine]
+: [1] | [4]

Cc1ccc(NC(=N)Nc2nc(-c3ccc(Cl)cc3)cs2)cc1 [1-[4-(4-chlorophenyl)-2-thiazolyl-3-(p-tolyl)guanidine]]
+: [3] | [1]

From patent US4089965A, “Thiazolylphenylguanidines as antirhinovirus agents” (American Cyanamid Company, priority 1977, dated 1978)
